Experimental data published in ChEMBL document CHEMBL3885881, “DrugMatrix”.

Organism: Rattus norvegicus
Experiment: DrugMatrix - Regimen: Daily Repeat
Assay type: toxicity, organism-based, Sprague-Dawley
Design: regimen Daily Repeat, gender Male, age 6-8 weeks
Conditions: in vivo, po, route oral GAVAGE, […]; for ABSOLUTE BASOPHIL / ABSOLUTE EOSINOPHIL / ABSOLUTE LYMPHOCYTE / ABSOLUTE SEGMENTED NEUTROPHIL / BASOPHIL / EOSINOPHIL / ERYTHROCYTE COUNT / HEMATOCRIT / HEMOGLOBIN / LEUKOCYTE COUNT / LYMPHOCYTE / MEAN CORPUSCULAR HEMOGLOBIN / MEAN CORPUSCULAR HEMOGLOBIN CONCENTRATION / MEAN CORPUSCULAR VOLUME / MONOCYTE / NEUTROPHIL / NUCLEATED RED BLOOD CELLS / PLATELET COUNT: tissue Blood; for ALANINE AMINOTRANSFERASE / ALBUMIN / ALKALINE PHOSPHATASE / ASPARTATE AMINOTRANSFERASE / BLOOD UREA NITROGEN / CARBON DIOXIDE / CHLORIDE / CHOLESTEROL / CREATINE PHOSPHOKINASE / CREATININE / GLUCOSE / LACTATE DEHYDROGENASE / LIPASE / PHOSPHORUS / POTASSIUM / SODIUM / TOTAL BILIRUBIN / TOTAL PROTEIN / URIC ACID: tissue Plasma
[1] = 0 mg/kg, 72 h, dose level Control, time 3 day
[2] = 0 mg/kg, 120 h, dose level Control, time 5 day
[3] = 15 mg/kg, 72 h, dose level Low, time 3 day

CCC(C)(C)C(=O)O[C@H]1C[C@@H](C)C=C2C=C[C@H](C)[C@H](CC[C@@H]3C[C@@H](O)CC(=O)O3)[C@H]21 [SIMVASTATIN]
ABSOLUTE BASOPHIL [1]: 0 CELLS/uL | ABSOLUTE EOSINOPHIL [1]: 14 CELLS/uL | ABSOLUTE LYMPHOCYTE [1]: 11144.67 CELLS/uL | ABSOLUTE SEGMENTED NEUTROPHIL [1]: 535.5 CELLS/uL | BASOPHIL [1]: 0% | EOSINOPHIL [1]: 0.17% | ERYTHROCYTE COUNT [1]: 5.08 x10E6/uL | HEMATOCRIT [1]: 32.32% | HEMOGLOBIN [1]: 12.87 G/DL | LEUKOCYTE COUNT [1]: 11.72 x10E3/uL | LYMPHOCYTE [1]: 94.67% | MEAN CORPUSCULAR HEMOGLOBIN [1]: 25.37 pg | MEAN CORPUSCULAR HEMOGLOBIN CONCENTRATION [1]: 39.85 G/DL | MEAN CORPUSCULAR VOLUME [1]: 63.58 fL | MONOCYTE [1]: 0.17% | NEUTROPHIL [1]: 5% | NUCLEATED RED BLOOD CELLS [1]: 0 /100WBC | PLATELET COUNT [1]: 1084 x10E3/uL | ALANINE AMINOTRANSFERASE [1]: 67.5 u/L | ALBUMIN [1]: 4.02 G/DL | ALKALINE PHOSPHATASE [1]: 374.17 u/L | ASPARTATE AMINOTRANSFERASE [1]: 83.5 u/L | BLOOD UREA NITROGEN [1]: 14.5 mg/dL | CARBON DIOXIDE [1]: 30 mmol/L | CHLORIDE [1]: 100.5 MEQ/L | CHOLESTEROL [1]: 71.33 mg/dL | CREATINE PHOSPHOKINASE [1]: 268.33 u/L | CREATININE [1]: 0.16 mg/dL | GLUCOSE [1]: 170.5 mg/dL | LACTATE DEHYDROGENASE [1]: 81.17 u/L | LIPASE [1]: 16.67 u/L | PHOSPHORUS [1]: 10.07 mg/dL | POTASSIUM [1]: 5.03 MEQ/L | SODIUM [1]: 142.92 MEQ/L | TOTAL BILIRUBIN [1]: 0.17 mg/dL | TOTAL PROTEIN [1]: 5.63 G/DL | URIC ACID [1]: 0.5 mg/dL | ABSOLUTE BASOPHIL [2]: 0 CELLS/uL | ABSOLUTE EOSINOPHIL [2]: 37.5 CELLS/uL | ABSOLUTE LYMPHOCYTE [2]: 8049.5 CELLS/uL | ABSOLUTE SEGMENTED NEUTROPHIL [2]: 646.83 CELLS/uL | BASOPHIL [2]: 0% | EOSINOPHIL [2]: 0.5% | ERYTHROCYTE COUNT [2]: 5.36 x10E6/uL | HEMATOCRIT [2]: 33.9% | HEMOGLOBIN [2]: 13.02 G/DL | LEUKOCYTE COUNT [2]: 8.82 x10E3/uL | LYMPHOCYTE [2]: 90.17% | MEAN CORPUSCULAR HEMOGLOBIN [2]: 24.32 pg | MEAN CORPUSCULAR HEMOGLOBIN CONCENTRATION [2]: 38.42 G/DL | MEAN CORPUSCULAR VOLUME [2]: 63.32 fL | MONOCYTE [2]: 1.17% | NEUTROPHIL [2]: 8.17% | NUCLEATED RED BLOOD CELLS [2]: 0.17 /100WBC | PLATELET COUNT [2]: 1231.5 x10E3/uL | ALANINE AMINOTRANSFERASE [2]: 62 u/L | ALBUMIN [2]: 3.97 G/DL | ALKALINE PHOSPHATASE [2]: 303.67 u/L | ASPARTATE AMINOTRANSFERASE [2]: 84.5 u/L | BLOOD UREA NITROGEN [2]: 14.83 mg/dL | CARBON DIOXIDE [2]: 31.83 mmol/L | CHLORIDE [2]: 97 MEQ/L | CHOLESTEROL [2]: 68.83 mg/dL | CREATINE PHOSPHOKINASE [2]: 411.33 u/L | CREATININE [2]: 0.16 mg/dL | GLUCOSE [2]: 170.17 mg/dL | LACTATE DEHYDROGENASE [2]: 88.5 u/L | LIPASE [2]: 9.5 u/L | PHOSPHORUS [2]: 9.98 mg/dL | POTASSIUM [2]: 5.72 MEQ/L | SODIUM [2]: 141.62 MEQ/L | TOTAL BILIRUBIN [2]: 0.1 mg/dL | TOTAL PROTEIN [2]: 5.67 G/DL | URIC ACID [2]: 0.52 mg/dL | ABSOLUTE BASOPHIL [3]: 0 CELLS/uL | ABSOLUTE EOSINOPHIL [3]: 0 CELLS/uL | ABSOLUTE LYMPHOCYTE [3]: 9235.67 CELLS/uL | ABSOLUTE SEGMENTED NEUTROPHIL [3]: 962.33 CELLS/uL | BASOPHIL [3]: 0% | EOSINOPHIL [3]: 0% | ERYTHROCYTE COUNT [3]: 5.23 x10E6/uL | HEMATOCRIT [3]: 32.6% | HEMOGLOBIN [3]: 12.9 G/DL | LEUKOCYTE COUNT [3]: 10.33 x10E3/uL | LYMPHOCYTE [3]: 89.33% | MEAN CORPUSCULAR HEMOGLOBIN [3]: 24.7 pg | MEAN CORPUSCULAR HEMOGLOBIN CONCENTRATION [3]: 39.57 G/DL | MEAN CORPUSCULAR VOLUME [3]: 62.4 fL | MONOCYTE [3]: 1.33% | NEUTROPHIL [3]: 9.33% | NUCLEATED RED BLOOD CELLS [3]: 0 /100WBC | PLATELET COUNT [3]: 1186.33 x10E3/uL | ALANINE AMINOTRANSFERASE [3]: 75 u/L | ALBUMIN [3]: 4.07 G/DL | ALKALINE PHOSPHATASE [3]: 310.67 u/L | ASPARTATE AMINOTRANSFERASE [3]: 85.33 u/L | BLOOD UREA NITROGEN [3]: 14 mg/dL | CARBON DIOXIDE [3]: 29.33 mmol/L | CHLORIDE [3]: 103 MEQ/L | CHOLESTEROL [3]: 68.67 mg/dL | CREATINE PHOSPHOKINASE [3]: 229.33 u/L | CREATININE [3]: 0.12 mg/dL | GLUCOSE [3]: 170.33 mg/dL | LACTATE DEHYDROGENASE [3]: 76.33 u/L | LIPASE [3]: 10 u/L | PHOSPHORUS [3]: 9.87 mg/dL | POTASSIUM [3]: 5.16 MEQ/L | SODIUM [3]: 146.93 MEQ/L | TOTAL BILIRUBIN [3]: 0.13 mg/dL | TOTAL PROTEIN [3]: 5.67 G/DL | URIC ACID [3]: 0.77 mg/dL
